Columns and labels:
PYR1-OX = test: qRT-PCR of ABA-regulated genes RD29B and RAB18; type: in vivo, Arabidopsis; details: 50 μM ABA, 8 hours
Experimental: One of ABA's major effects is to regulate gene expression. We therefore examined the effects of ABA and mandipropamid on gene expression in wild type, PYR-OX, MDP1 and MPD2 transgenic plants. Seed of the wild type or transgenic lines were surface sterilized, stratified for 4 days at 4° C. and then grown for 10 days at room temperature under continuous illumination in a liquid culture consisting of 0.5×MS salts and 0.5% sucrose and grown with continuous shaking to provide aeration. After 10 days, the culture solutions were adjusted to contain 50 μM ABA, 2 μM mandipropamid, or a mock treatment. After 8 hours exposure to the test compounds RNA was isolated using RNAEasy™ Plant RNA isolation kit (Qiagen, USA) and treated with DNAse. The purified RNA was utilized in qRT-PCR reactions using primers for the ABA-regulated genes RD29B or RAB18. Biological triplicate and triple technical replicate measurements were conducted. To perform qRT-PCR analyses, cDNA was generated from 5 μg of total RNA using superscript reverse transcriptase III (Invitrogen, USA), in reaction mixture containing a oligo-dT20 (SEQ ID NO:110) and a ribosomal RNA primer. Real-time quantitative PCR analysis was performed by ΔCt method of relative quantification. PCR mixtures contained cDNA, Maxima® SYBR green/Fluorescein qPCR master mix (Fermentas, USA) and 330 nM of each gene-specific primer. RT-PCRs were conducted using a BioRad CFX96 Real-Time PCR System and the data were processed using the BioRad CFX Manager software (BioRad, USA). PCRs were performed under the following cycling conditions: 3 min at 95° C., followed by 40 cycles of 10 sec at 95° C., 10 sec at 55° C. and 30 sec at 72° C. in 96-well optical reaction plates (BioRad, USA). The specificity of amplicons was verified by melting curve (disassociation) analysis (60-95° C.) after 40 cycles. Input cDNA was normalized using an internal control gene, PEX4 (AT5G25760).

[1] = target: T1, GST-HAB1 with 6×-His-PYR1^MANDI (Arabidopsis thaliana, UniProt O49686, F108A/F159L/K59R/S122G/V81I/Y58H); test: PP2C enzyme inhibition assay (4-methylumbelliferyl-phosphate); type: biochemical; details: PYR1^MANDI with GST-HAB1, GST-ABI1, GST-ABI2
T1 construct: made in house; host or cells: E. coli BL21[DE3]pLysS (receptor)
Experimental: We next characterized the effects of recombinant PYR1^MANDI on PP2C activity using the fluorogenic substrate 4-methylumbelliferyl-phosphate. Recombinant receptor and PP2C proteins were prepared as described above and used to examine PP2C inactivation in response to mandipropamid or ABA. Enzyme inhibition assays were conducted using the following assay conditions: 100 nM 6×-His-PYR1^MANDI, 50 nM GST-PP2C, 100 mM Tris-OAc (pH 7.9), 100 mM NaCl, 1 mM MnCl2, 1% β-mercaptoethanol. […] The three ABA-regulated clade A PP2Cs, GST-HAB1, GST-ABI1 and GST-ABI2 were each tested under the same enzyme conditions in separate reactions. The assays were conducted at a variety of mandipropamid or ABA concentrations so that IC50 values could be determined. […] Thus, the PYR1^MANDI receptor is highly sensitive to activation by mandipropamid and interacts with multiple clade A PP2Cs in response to mandipropamid. This high level of sensitivity is consistent with the yeast two hybrid results described above in which a detectable interaction between PYR1^MANDI and HAB1 could be observed at concentrations as low as 2 nM (see Table 1). We note that the yeast two hybrid reporter systems requires only a small percentage of PYR1^MANDI receptors to bind HAB1 for an interaction signal and is therefore a potentially more sensitive indicator than in vitro assays. […] Thus these in vitro assays confirm that PYR1^MANDI is selectively activated by mandipropamid.

PYR1 K59R A89I S92W = target: T2, PYR1 K59R A89I S92W (Arabidopsis thaliana, UniProt O49686, A89I/K59R/S92W); test: Y2H Combinatorial Mutagenesis Screen I (HAB1, X-gal); type: cell-based
T2 construct: expressed in transfected cells; host or cells: S. cerevisiae Y190 two-hybrid reporter strain
Text: (§1) This screening approach yielded mutants at ligand contacting residues that alter sensitivity to specific ligands. We reasoned that receptor sensitivity could be improved by systematically constructing combinations of the best mutant variants identified in the first round of screening. To test this, we constructed mutant combinations using the strongest mutations identified for mandipropamid, benzothiadiazole, benoxacor or fludioxonil sensitivity. The mutations selected for combinatorial mutagenesis are listed in bold type in Table 1; The mutant combinations were constructed using the QuickChange Lightning Multi Site-Directed PCR Mutagenesis kit (Agilent, USA) using pBD-PYR1^K59R template DNA and mutagenic primers, essentially as previously described (Mosquna et al., 2011). The mutant combinations were sequence validated, introduced into the pACT-HAB1 Y190 reporter strain and then tested for responsiveness to a range of compound concentrations (100, 50, 25, 10, 1, 0.2, 0.1 or 0 μM each test compound). These efforts yielded double mutant receptor variants with improved sensitivity for the 4 compound/receptor pairs examined (see entries labeled “Combinatorial Mutagenesis Screen I” in Table 1).

PYR1 K59R A89I S92I = target: T3, PYR1 K59R A89I S92I (Arabidopsis thaliana, UniProt O49686, A89I/K59R/S92I); test: as above; type: cell-based
T3 construct: expressed in transfected cells; host or cells: S. cerevisiae Y190 two-hybrid reporter strain
Text: as §1

PYR1 K59R L87F = target: T4, PYR1 K59R L87F (Arabidopsis thaliana, UniProt O49686, K59R/L87F); test: Y2H Pocket Library Screen (HAB1, X-gal); type: cell-based
T4 construct: expressed in transfected cells; host or cells: S. cerevisiae Y190 yeast two-hybrid reporter strain
Experimental: (§2) The set of 475 mutant plasmids were individually transformed into the Y190 yeast two hybrid reporter strain co-transformed with pACT-HAB1, as previously described (Park et al., 2009). The yeast strains generated were arrayed into 96-well plates yielding what we refer to as the “pocket library”. The pocket library strains were spotted onto agar plates containing selective synthetic dextrose (minus Leu & Trp) medium that was supplemented with a single test compound at 100 μM. The pocket library strains were separately tested for responsiveness to the following compounds: dichlobenil, benzothiadiazole, mandipropamid, fludioxonil, and benoxacor. After incubating test plates at 30° C. for two days, colonies were chloroform lysed and stained to reveal β-galactosidase expression levels, using previously described methods (Park et al., 2009). Mutants displaying responsiveness to the test compound, if present, were identified by virtue of X-gal staining and then subjected to subsequent optimization efforts. Using this approach we identified mutations that conferred detectable sensitivity to the compounds tested (see entries labeled “Pocket Library Screens” in Table 1).

PYR1 K59R T162W = target: T5, PYR1 K59R T162W (Arabidopsis thaliana, UniProt O49686, K59R/T162W); test: Y2H Pocket Library Screen (HAB1, X-gal); type: cell-based
T5 construct: expressed in transfected cells; host or cells: S. cerevisiae Y190
Experimental: as §2

PYR1 K59R F159V = target: T6, PYR1 K59R F159V (Arabidopsis thaliana, UniProt O49686, F159V/K59R); test: Y2H Pocket Library Screen (HAB1, X-gal); type: cell-based
T6 construct: expressed in transfected cells; host or cells: S. cerevisiae Y190
Experimental: as §2

PYR1 K59R M158C = target: T7, PYR1 K59R M158C (Arabidopsis thaliana, UniProt O49686, K59R/M158C); test: Y2H Pocket Library Screen (HAB1, X-gal); type: cell-based
T7 construct: expressed in transfected cells; host or cells: S. cerevisiae Y190 two-hybrid reporter strain
Experimental: as §2

PYR1 K59R S92I = target: T8, PYR1 K59R S92I (Arabidopsis thaliana, UniProt O49686, K59R/S92I); test: Y2H Pocket Library Screen (HAB1, X-gal); type: cell-based
T8 construct: expressed in transfected cells; host or cells: S. cerevisiae Y190 yeast two-hybrid reporter strain
Experimental: as §2

PYR1 K59R M158T = target: T9, PYR1 K59R M158T (Arabidopsis thaliana, UniProt O49686, K59R/M158T); test: Y2H Pocket Library Screen (HAB1, X-gal); type: cell-based
T9 construct: expressed in transfected cells; host or cells: S. cerevisiae Y190 two-hybrid reporter strain
Experimental: as §2

PYR1 K59R M158V = target: T10, PYR1 K59R M158V (Arabidopsis thaliana, UniProt O49686, K59R/M158V); test: Y2H Pocket Library Screen (HAB1, X-gal); type: cell-based
T10 construct: expressed in transfected cells; host or cells: S. cerevisiae Y190 two-hybrid reporter strain
Experimental: as §2

PYR1 K59R S92W = target: T11, PYR1 K59R S92W (Arabidopsis thaliana, UniProt O49686, K59R/S92W); test: Y2H Pocket Library Screen (HAB1, X-gal); type: cell-based
T11 construct: expressed in transfected cells; host or cells: S. cerevisiae Y190 yeast two-hybrid reporter strain
Experimental: as §2

PYR1 K59R A89W = target: T12, PYR1 K59R A89W (Arabidopsis thaliana, UniProt O49686, A89W/K59R); test: Y2H Pocket Library Screen (HAB1, X-gal); type: cell-based
T12 construct: expressed in transfected cells; host or cells: S. cerevisiae Y190 yeast two-hybrid reporter strain
Experimental: as §2

PYR1 K59R A89I = target: T13, PYR1 K59R A89I (Arabidopsis thaliana, UniProt O49686, A89I/K59R); test: Y2H Pocket Library Screen (HAB1, X-gal); type: cell-based
T13 construct: expressed in transfected cells; host or cells: S. cerevisiae Y190 yeast two-hybrid reporter strain
Experimental: as §2

T7 sequence (O49686 whole entry K59R/M158C): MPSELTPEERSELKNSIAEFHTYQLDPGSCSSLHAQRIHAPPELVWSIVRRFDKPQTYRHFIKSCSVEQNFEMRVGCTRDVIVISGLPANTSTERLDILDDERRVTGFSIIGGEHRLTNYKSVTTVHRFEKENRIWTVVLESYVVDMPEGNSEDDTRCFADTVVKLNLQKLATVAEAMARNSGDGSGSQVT
T7 sequence (Q9CAJ0 23-511, further chain): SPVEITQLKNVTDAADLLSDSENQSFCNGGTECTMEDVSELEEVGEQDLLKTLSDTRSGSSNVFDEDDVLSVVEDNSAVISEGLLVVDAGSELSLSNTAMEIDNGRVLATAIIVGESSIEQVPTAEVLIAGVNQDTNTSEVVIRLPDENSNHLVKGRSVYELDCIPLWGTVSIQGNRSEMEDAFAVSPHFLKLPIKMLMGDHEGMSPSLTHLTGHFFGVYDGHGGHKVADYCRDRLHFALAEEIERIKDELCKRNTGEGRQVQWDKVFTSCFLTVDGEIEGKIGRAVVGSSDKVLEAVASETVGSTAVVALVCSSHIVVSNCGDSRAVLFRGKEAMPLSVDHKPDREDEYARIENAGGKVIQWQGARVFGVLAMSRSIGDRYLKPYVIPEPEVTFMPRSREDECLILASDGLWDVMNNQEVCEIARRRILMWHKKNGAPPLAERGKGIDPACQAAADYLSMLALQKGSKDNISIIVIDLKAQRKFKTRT
T2 sequence (Q9CAJ0 23-511): as the sequence (Q9CAJ0 23-511, further chain) above
T2 sequence (O49686 whole entry K59R/A89I/S92W): as the sequence (O49686 whole entry K59R/M158C) above, with A89I, S92W, C158M counted along it
T1 sequence (Q9CAJ0 23-511): as the sequence (Q9CAJ0 23-511, further chain) above
T1 sequence (O49686 whole entry Y58H/K59R/V81I/F108A/S122G/F159L): as the sequence (O49686 whole entry K59R/M158C) above, with Y58H, V81I, F108A, S122G, C158M, F159L counted along it
T9 sequence (Q9CAJ0 23-511): as the sequence (Q9CAJ0 23-511, further chain) above
T9 sequence (O49686 whole entry K59R/M158T): as the sequence (O49686 whole entry K59R/M158C) above, with C158T counted along it
T11 sequence (Q9CAJ0 23-511): as the sequence (Q9CAJ0 23-511, further chain) above
T11 sequence (O49686 whole entry K59R/S92W): as the sequence (O49686 whole entry K59R/M158C) above, with S92W, C158M counted along it
T13 sequence (O49686 whole entry K59R/A89I): as the sequence (O49686 whole entry K59R/M158C) above, with A89I, C158M counted along it
T13 sequence (Q9CAJ0 23-511, further chain): as the sequence (Q9CAJ0 23-511, further chain) above
T10 sequence (O49686 whole entry K59R/M158V): as the sequence (O49686 whole entry K59R/M158C) above, with C158V counted along it
T10 sequence (Q9CAJ0 23-511, further chain): as the sequence (Q9CAJ0 23-511, further chain) above
T8 sequence (O49686 whole entry K59R/S92I): as the sequence (O49686 whole entry K59R/M158C) above, with S92I, C158M counted along it
T8 sequence (Q9CAJ0 23-511, further chain): as the sequence (Q9CAJ0 23-511, further chain) above
T5 sequence (O49686 whole entry K59R/T162W): as the sequence (O49686 whole entry K59R/M158C) above, with C158M, T162W counted along it
T5 sequence (Q9CAJ0 23-511, further chain): as the sequence (Q9CAJ0 23-511, further chain) above
T6 sequence (O49686 whole entry K59R/F159V): as the sequence (O49686 whole entry K59R/M158C) above, with C158M, F159V counted along it
T6 sequence (Q9CAJ0 23-511, further chain): as the sequence (Q9CAJ0 23-511, further chain) above
T3 sequence (O49686 whole entry K59R/A89I/S92I): as the sequence (O49686 whole entry K59R/M158C) above, with A89I, S92I, C158M counted along it
T3 sequence (Q9CAJ0 23-511, further chain): as the sequence (Q9CAJ0 23-511, further chain) above
T12 sequence (O49686 whole entry K59R/A89W): as the sequence (O49686 whole entry K59R/M158C) above, with A89W, C158M counted along it
T12 sequence (Q9CAJ0 23-511, further chain): as the sequence (Q9CAJ0 23-511, further chain) above
T4 sequence (O49686 whole entry K59R/L87F): as the sequence (O49686 whole entry K59R/M158C) above, with L87F, C158M counted along it
T4 sequence (Q9CAJ0 23-511, further chain): as the sequence (Q9CAJ0 23-511, further chain) above

CC1=CC(=O)CC(C)(C)[C@@]1(O)/C=C/C(C)=C\C(=O)O [ABA, abscisic acid]
levels of RAB18 and RD29 induced by ABA, compared with wild type (PYR1-OX): higher
activation of the receptors by ABA [1]: not appreciably activated

CC1COc2ccccc2N1C(=O)C(Cl)Cl (centres unmarked) [Benoxacor, benoxacor]
Threshold (PYR1 K59R A89I S92W): 50 µM
Threshold (PYR1 K59R A89I S92I): 50 µM
Threshold (PYR1 K59R L87F): 100 µM
Threshold (PYR1 K59R T162W): 50 µM
Threshold (PYR1 K59R F159V): 100 µM
Threshold (PYR1 K59R M158C): 100 µM
Threshold (PYR1 K59R S92I): 50 µM
Threshold (PYR1 K59R M158T): 100 µM
Threshold (PYR1 K59R M158V): 100 µM
Threshold (PYR1 K59R S92W): 50 µM
Threshold (PYR1 K59R A89W): 100 µM
Threshold (PYR1 K59R A89I): 100 µM

— patent US9738902B2, “Modified PYR/PYL receptors activated by ligands” (priority 2013, dated 2017)
